Laboratory results reported in patent US8569344B2, “N-piperidinyl acetamide derivatives as calcium channel blockers” (Zalicus Pharmaceuticals Ltd., priority 2008, dated 2013).
Read-outs that look alike come from different tables or passages of the source.

Tests used:
Type in all cases: cell-based
hERG K+ channel = hERG K+ channel (Homo sapiens, UniProt Q12809); assay: hERG K+ Channel Block
[1] = biological target: T1, human α1H T-type channels (Homo sapiens, UniProt O95180); assay: T-type calcium channel block, whole cell patch clamp in HEK cells (α1H)
T1 construct: expressed in transfected cells; host or cells: HEK 293

[2] = biological target: T2, human α1G T-type channels (Homo sapiens, UniProt O43497); assay: T-type calcium channel block, whole cell patch clamp in HEK cells (α1G)
T2 construct: expressed in transfected cells; host or cells: HEK 293

[3] = HEK cells, patch clamp, mainly non-inactivated protocol, values above 10 μM shown as 10 μM, read-out: T-type Calcium Channel Block α1H IC50
[4] = HEK cells, patch clamp, mainly non-inactivated protocol, values above 10 μM shown as 10 μM, below 0.30 μM shown as 0.30 μM, read-out: T-type Calcium Channel Block α1G IC50

T2 sequence (O43497 whole entry): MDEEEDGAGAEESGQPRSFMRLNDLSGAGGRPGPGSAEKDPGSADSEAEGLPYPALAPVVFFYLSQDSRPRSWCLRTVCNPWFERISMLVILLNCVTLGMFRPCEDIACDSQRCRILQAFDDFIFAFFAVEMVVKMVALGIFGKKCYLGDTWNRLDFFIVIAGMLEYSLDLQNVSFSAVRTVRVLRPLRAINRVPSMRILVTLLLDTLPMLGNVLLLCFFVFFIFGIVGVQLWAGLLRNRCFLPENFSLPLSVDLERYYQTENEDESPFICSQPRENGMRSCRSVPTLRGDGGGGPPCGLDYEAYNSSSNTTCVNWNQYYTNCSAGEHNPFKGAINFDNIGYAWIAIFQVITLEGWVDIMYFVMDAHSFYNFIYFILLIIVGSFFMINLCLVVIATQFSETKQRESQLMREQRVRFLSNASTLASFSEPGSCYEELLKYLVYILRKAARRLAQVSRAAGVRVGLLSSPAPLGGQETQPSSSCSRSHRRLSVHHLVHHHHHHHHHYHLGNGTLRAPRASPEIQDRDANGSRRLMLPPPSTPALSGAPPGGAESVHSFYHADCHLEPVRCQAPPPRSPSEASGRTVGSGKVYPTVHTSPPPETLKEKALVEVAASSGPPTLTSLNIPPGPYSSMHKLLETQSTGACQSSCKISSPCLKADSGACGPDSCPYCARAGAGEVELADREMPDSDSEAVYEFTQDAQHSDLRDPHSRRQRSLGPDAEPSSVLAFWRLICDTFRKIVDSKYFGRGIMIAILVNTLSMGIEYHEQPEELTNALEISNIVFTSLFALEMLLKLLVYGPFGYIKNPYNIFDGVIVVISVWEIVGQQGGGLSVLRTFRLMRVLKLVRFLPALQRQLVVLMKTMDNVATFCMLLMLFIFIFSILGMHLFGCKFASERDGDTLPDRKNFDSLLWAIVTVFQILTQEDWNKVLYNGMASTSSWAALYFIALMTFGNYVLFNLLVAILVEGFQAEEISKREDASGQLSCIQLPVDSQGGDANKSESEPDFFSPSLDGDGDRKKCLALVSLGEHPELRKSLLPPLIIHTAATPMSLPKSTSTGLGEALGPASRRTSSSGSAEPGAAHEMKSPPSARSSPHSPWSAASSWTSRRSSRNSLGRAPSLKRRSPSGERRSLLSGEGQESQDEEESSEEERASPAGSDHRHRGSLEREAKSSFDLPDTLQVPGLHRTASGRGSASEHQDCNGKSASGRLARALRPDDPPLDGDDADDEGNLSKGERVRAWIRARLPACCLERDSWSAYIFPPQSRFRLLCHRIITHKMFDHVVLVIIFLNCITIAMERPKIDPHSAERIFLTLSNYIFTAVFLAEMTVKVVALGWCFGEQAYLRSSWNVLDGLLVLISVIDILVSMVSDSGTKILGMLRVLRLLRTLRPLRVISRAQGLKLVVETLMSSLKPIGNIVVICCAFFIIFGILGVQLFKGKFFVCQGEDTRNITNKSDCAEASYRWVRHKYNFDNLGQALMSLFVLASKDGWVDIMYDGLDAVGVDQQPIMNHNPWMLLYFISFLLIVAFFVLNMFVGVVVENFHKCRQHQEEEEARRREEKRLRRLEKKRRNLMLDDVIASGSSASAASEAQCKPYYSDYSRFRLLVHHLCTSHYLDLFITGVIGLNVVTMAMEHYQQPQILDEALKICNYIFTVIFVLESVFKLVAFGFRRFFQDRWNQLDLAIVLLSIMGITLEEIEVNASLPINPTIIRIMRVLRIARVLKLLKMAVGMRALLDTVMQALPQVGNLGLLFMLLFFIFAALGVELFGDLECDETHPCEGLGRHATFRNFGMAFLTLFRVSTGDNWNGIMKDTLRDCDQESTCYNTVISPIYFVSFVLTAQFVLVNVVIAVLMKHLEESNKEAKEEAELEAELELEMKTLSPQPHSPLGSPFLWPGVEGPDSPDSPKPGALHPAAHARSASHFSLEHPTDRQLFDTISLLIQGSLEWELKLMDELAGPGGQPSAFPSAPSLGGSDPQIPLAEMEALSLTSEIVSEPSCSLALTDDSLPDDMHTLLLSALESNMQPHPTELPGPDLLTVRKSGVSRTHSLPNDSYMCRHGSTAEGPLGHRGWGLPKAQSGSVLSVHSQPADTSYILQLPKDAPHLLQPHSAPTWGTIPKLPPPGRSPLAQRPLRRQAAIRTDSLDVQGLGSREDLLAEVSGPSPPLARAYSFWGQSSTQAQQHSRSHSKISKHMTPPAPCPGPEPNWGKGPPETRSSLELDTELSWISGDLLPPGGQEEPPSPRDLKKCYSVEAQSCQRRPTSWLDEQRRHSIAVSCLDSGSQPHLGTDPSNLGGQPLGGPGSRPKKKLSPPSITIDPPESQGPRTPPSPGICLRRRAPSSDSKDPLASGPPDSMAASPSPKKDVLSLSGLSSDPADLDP
T1 sequence (O95180 whole entry): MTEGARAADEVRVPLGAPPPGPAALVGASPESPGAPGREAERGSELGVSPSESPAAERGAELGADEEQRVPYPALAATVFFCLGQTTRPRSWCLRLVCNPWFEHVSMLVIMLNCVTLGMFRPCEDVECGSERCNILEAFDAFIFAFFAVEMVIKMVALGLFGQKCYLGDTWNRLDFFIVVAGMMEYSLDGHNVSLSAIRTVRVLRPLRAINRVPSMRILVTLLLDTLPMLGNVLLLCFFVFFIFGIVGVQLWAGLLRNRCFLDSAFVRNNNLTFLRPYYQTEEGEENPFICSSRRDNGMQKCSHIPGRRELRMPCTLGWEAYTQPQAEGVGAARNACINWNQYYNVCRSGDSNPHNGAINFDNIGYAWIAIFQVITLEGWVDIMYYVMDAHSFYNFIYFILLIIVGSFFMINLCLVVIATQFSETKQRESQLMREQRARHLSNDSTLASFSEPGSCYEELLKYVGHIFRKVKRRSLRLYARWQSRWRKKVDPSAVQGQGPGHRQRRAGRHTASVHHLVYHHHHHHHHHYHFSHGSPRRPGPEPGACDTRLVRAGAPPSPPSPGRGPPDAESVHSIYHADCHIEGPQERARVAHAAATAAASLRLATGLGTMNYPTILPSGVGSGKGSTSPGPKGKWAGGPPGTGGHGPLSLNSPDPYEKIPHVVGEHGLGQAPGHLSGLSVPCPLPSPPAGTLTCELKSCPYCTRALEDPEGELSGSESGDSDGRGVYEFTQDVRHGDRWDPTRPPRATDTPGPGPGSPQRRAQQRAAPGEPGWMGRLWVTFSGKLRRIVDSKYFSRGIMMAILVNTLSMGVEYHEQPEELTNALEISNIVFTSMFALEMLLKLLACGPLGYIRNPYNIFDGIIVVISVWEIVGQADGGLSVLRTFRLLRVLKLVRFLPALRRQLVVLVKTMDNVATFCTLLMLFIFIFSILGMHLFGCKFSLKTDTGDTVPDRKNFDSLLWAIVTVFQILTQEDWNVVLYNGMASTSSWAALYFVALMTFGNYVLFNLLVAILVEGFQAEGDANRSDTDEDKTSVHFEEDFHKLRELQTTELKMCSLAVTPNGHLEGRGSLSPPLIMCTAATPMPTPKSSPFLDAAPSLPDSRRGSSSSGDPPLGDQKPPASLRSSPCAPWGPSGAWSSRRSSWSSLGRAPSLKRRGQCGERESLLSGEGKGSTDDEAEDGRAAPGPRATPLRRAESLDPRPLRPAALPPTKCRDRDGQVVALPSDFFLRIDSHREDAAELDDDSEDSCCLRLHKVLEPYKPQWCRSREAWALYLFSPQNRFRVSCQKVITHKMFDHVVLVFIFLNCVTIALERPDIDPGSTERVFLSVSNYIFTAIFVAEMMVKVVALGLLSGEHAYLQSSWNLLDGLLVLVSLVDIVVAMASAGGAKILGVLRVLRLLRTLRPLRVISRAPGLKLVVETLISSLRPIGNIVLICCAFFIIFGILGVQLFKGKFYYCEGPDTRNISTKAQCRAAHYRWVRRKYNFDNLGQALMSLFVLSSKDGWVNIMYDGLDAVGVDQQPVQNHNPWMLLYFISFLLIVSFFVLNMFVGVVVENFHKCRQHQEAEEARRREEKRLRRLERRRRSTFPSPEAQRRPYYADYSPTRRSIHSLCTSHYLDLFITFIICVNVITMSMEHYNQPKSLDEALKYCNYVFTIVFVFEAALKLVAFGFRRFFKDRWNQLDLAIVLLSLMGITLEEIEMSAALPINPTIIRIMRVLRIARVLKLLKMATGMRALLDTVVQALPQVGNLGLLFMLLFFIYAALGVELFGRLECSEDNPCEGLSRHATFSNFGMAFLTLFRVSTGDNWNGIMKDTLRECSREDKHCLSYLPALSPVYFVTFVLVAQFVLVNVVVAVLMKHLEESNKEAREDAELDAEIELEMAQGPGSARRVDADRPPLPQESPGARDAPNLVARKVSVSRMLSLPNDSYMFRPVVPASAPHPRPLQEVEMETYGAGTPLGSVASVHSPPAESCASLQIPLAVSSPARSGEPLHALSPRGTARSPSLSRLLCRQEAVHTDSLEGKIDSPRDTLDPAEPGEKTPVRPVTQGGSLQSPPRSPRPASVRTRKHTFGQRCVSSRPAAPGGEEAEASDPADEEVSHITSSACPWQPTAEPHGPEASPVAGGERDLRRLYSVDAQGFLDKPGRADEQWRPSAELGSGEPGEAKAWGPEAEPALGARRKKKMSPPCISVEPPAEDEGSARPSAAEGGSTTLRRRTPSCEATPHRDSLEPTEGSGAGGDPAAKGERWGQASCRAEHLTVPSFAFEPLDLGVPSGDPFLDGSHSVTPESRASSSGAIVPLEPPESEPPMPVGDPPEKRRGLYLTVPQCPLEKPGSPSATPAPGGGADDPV

SMILES | IC50 [1, 3] [nM] | IC50 [2, 4] [nM] | IC50 (hERG K+ channel) [nM] | IC50 (hERG K+ channel; human) [nM] | IC50 [1] [nM] | IC50 [2] [nM]
NC1(CN2CCC(CC(=O)Nc3cc(C(F)(F)F)cc(C(F)(F)F)c3)CC2)CCCC1 [Compound 159, 2-(1-((1-aminocyclopentyl)methyl)piperidin-4-yl)-N-(3,5-bis(trifluoromethyl)phenyl)acetamide] | 3360 | 310 | 1300 | – | – | –
CC(C)CS(=O)(=O)NCCN1CCC(CC(=O)Nc2cc(F)cc(C(F)(F)F)c2)CC1 [Compound 427, N-(3-fluoro-5-(trifluoromethyl)phenyl)-2-(1-(2-(2-methylpropylsulfonamido)ethyl)piperidin-4-yl)acetamide] | – | < 300 | 450 | – | – | –
CC(C)S(=O)(=O)NCCN1CCC(CC(=O)Nc2cc(Br)cc(C(F)(F)F)c2)CC1 [Compound 391, N-(3-bromo-5-(trifluoromethyl)phenyl)-2-(1-(2-(1-methylethylsulfonamido)ethyl)piperidin-4-yl)acetamide] | – | < 300 | 630 | – | – | –
O=C(NCC1CCN(CCNC(=O)C2CC2)CC1)c1cc(C(F)(F)F)cc(C(F)(F)F)c1 [Compound 59, N-((1-(2-(cyclopropanecarboxamido)ethyl)piperidin-4-yl)methyl)-3,5-bis(trifluoromethyl)benzamide] | 1660 | – | 2800 | – | – | –
CC(C)(C#N)NC(=O)CN1CCC(CNC(=O)c2cc(C(F)(F)F)cc(C(F)(F)F)c2)CC1 [Compound 304, N-((1-(2-(2-cyanopropan-2-ylamino)-2-oxoethyl)piperidin-4-yl)methyl)-3,5-bis(trifluoromethyl)benzamide] | 370 | < 300 | – | – | – | –
O=C(CN1CCC(CNC(=O)c2cccc(Cl)c2)CC1)NN1CCCCC1 [Compound 527, 3-chloro-N-((1-(2-oxo-2-(piperidin-1-ylamino)ethyl)piperidin-4-yl)methyl)benzamide] | 2840 | 2650 | – | – | – | –
CC.CC(F)CNC(=O)CN1CCC(CNC(=O)c2cc(F)cc(Cl)c2)CC1 (stereo not shown) [Compound 553, 3-chloro-5-fluoro-N-((1-(2-(2-fluoropropylamino)-2-oxoethyl)piperidin-4-yl)methyl)benzamide compound with ethane (1:1)] | – | – | – | – | 1730 | 2520
CCC1CCCN1CC(=O)N1CCC(CNC(=O)c2cc(C(F)(F)F)cc(C(F)(F)F)c2)CC1 (stereo not shown) [Compound 253, N-((1-(2-(2-ethylpyrrolidin-1-yl)acetyl)piperidin-4-yl)methyl)-3,5-bis(trifluoromethyl)benzamide] | 1310 | 480 | – | – | – | –
CC(C)(C)NC(=O)CN1CCC(CNC(=O)/C=C/c2cc(Cl)cc(Cl)c2)CC1 [Compound 378, (E)-N-((1-(2-(tert-butylamino)-2-oxoethyl)piperidin-4-yl)methyl)-3-(3,5-dichlorophenyl)acrylamide] | 1440 | 1600 | – | – | – | –
C[C@H]1CC[C@H](NCC(=O)N2CCC(CNC(=O)c3cc(C(F)(F)F)cc(C(F)(F)F)c3)CC2)CC1 [Compound 264, N-((1-(2-((1r,4r)-4-methylcyclohexylamino)acetyl)piperidin-4-yl)methyl)-3,5-bis(trifluoromethyl)benzamide] | 530 | < 300 | – | – | – | –
CC(C)(C)OC(=O)NCCN1CCC(CNC(=O)c2cc(F)cc(F)c2)CC1 [Compound 47, tert-butyl 2-(4-((3,5-difluorobenzamido)methyl)piperidin-1-yl)ethylcarbamate] | 880 | 3110 | – | – | – | –

Continued by falling IC50 [1, 3], values first:

IC50 [1, 3] [nM] | IC50 [2, 4] [nM] | SMILES | IC50 (hERG K+ channel) [nM] | IC50 (hERG K+ channel; human) [nM] | IC50 [1] [nM] | IC50 [2] [nM]
230 | – | O=C(NCC1CCN(CCNS(=O)(=O)C(F)(F)F)CC1)c1cc(Br)cc(C(F)(F)F)c1 [Compound 115, 3-bromo-5-(trifluoromethyl)-N-((1-(2-(trifluoromethylsulfonamido)ethyl)piperidin-4-yl)methyl)benzamide] | – | ≥ 8300 | – | –
210 | < 300 | Cc1cc(C)cc(C(=O)NCC2CCN(CC(=O)N3CCC[C@H]3C(F)(F)F)CC2)c1 [Compound 463, (S)-3,5-dimethyl-N-((1-(2-oxo-2-(2-(trifluoromethyl)pyrrolidin-1-yl)ethyl)piperidin-4-yl)methyl) benzamide] | – | – | – | –
200 | < 300 | CC(C)(C)S(=O)(=O)NCCN1CCC(CNC(=O)c2cccc(OC(F)(F)F)c2)CC1 [Compound 574, N-((1-(2-(1,1-dimetylethylsulfonamido)ethyl)piperidin-4-yl)methyl)-3-(trifluoromethoxy)benzamide] | 4100 | – | – | –
200 | – | CC(C)CS(=O)(=O)NCCN1CCC(CNC(=O)c2cc(F)cc(C(F)(F)F)c2)CC1 [Compound 26, 3-fluoro-N-((1-(2-(2-methylpropylsulfonamido)ethyl)piperidin-4-yl)methyl)-5-(trifluoromethyl)benzamide] | 2600 | – | – | –
160 | – | CN(C(=O)CN1CCC(CNC(=O)c2cc(F)cc(C(F)(F)F)c2)CC1)C1(C)CCC1 [Compound 594, 3-fluoro-N-((1-(2-(methyl(1-methylcyclobutyl)amino)-2-oxoethyl)piperidin-4-yl)methyl)-5-(trifluoromethyl)benzamide] | – | ≥ 17000 | – | –
160 | < 300 | CC(C)(C)OC(=O)NCCN1CCC(CNC(=O)c2cc(Cl)cc(C(F)(F)F)c2)CC1 [Compound 40, tert-butyl 2-(4-((3-chloro-5-(trifluoromethyl)benzamido)methyl)piperidin-1-yl)ethylcarbamate] | – | – | – | –
160 | < 300 | CC(C(=O)N1CCC[C@H]1C(F)(F)F)N1CCC(CNC(=O)c2cc(F)cc(Cl)c2)CC1 (stereo partly drawn) [Compound 548, 3-chloro-5-fluoro-N-((1-(1-oxo-1-((S)-2-(trifluoromethyl)pyrrolidin-1-yl)propan-2-yl)piperidin-4-yl)methyl)benzamide] | – | – | – | –
150 | < 300 | CN(C(=O)CN1CCC(CNC(=O)c2cc(F)cc(Cl)c2)CC1)C1(C)CCC1 [Compound 583, 3-chloro-5-fluoro-N-((1-(2-(methyl(1-methylcyclobutyl)amino)-2-oxoethyl)piperidin-4-yl)methyl)benzamide] | 1700 | – | – | –
140 | < 300 | Cc1cc(F)cc(C(=O)NCC2CCN(CC(=O)NC3(C)CCC3)CC2)c1 [Compound 476, 3-fluoro-5-methyl-N-((1-(2-(1-mtrhylcyclobutylamino)-2-oxoethyl)piperidin-4-yl)methyl) benzamide] | – | ≥ 16600 | – | –
120 | < 300 | O=C(NCC1CCN(CCNC(=O)C2(C(F)(F)F)CCCC2)CC1)c1cc(C(F)(F)F)cc(C(F)(F)F)c1 [Compound 340, 3,5-bis(trifluoromethyl)-N-((1-(2-(1-(trifluoromethyl)cyclopentanecarbox-amido)ethyl)piperidin-4-yl)methyl) benzamide] | – | – | – | –
90 | < 300 | CC(C)(C(=O)NCCN1CCC(CNC(=O)c2cc(F)cc(Cl)c2)CC1)C(F)(F)F [Compound 495, 3-chloro-5-fluoro-N-((1-(2-(3,3,3-trifluoro-2,2-dimethylpropanamido)ethyl)piperidin-4-yl)methyl)benzamide] | 4100 | – | – | –
60 | < 300 | O=C(NCC1CCN(CC(=O)N2CCC[C@H]2C(F)(F)F)CC1)c1cccc(OC(F)(F)F)c1 [Compound 471, (S)-N-((1-(2-oxo-2-(2-(trifluoromethyl)pyrrolidin-1-yl)ethyl)piperidin-4-yl)methyl)-3-(trifluoromethoxy)benzamide] | 2300 | – | – | –
